Test results published in patent US6455520B1, “Benzamide derivatives and their use as cytokine inhibitors” (Astra Zeneca AB, priority 1998, dated 2002).

Tests used:
p38α = target: T1, p38α (Homo sapiens, UniProt Q16539); test: In vitro enzyme assay, p38α; format: biochemical; conditions: read-out: IC50 against p38α
T1 construct: c-myc (N); 6His (N); made in house; host or cells: E. coli (PET vectors)
Method: The ability of compounds of the invention to inhibit the enzyme p38 kinase was assessed. Activity of test compounds against each of the p38α and p38β isoforms of the enzyme was determined.
Human recombinant MKK6 (GenBank Accesion Number G1209672) was isolated from Image clone 45578 (Genomics, 1996, 33, 151) and utilised to produce protein in the form of a GST fusion protein in a pGEX vector using analogous procedures to those disclosed by J. Han et al., Journal of Biological Chemistry, 1996, 271, 2886-2891. p38α (GenBank Accession Number G529039) and p38β (GenBank Accession Number G1469305) were isolated by PCR amplification of human lymphoblastoid cDNA (GenBank Accession Number GM1416) and human foetal brain cDNA [synthesised from mRNA (Clontech, catalogue no. 6525-1) using a Gibco superscript cDNA synthesis kit] respectively using oligonucleotides designed for the 5′ and 3′ ends of the human p38α and p38β genes using analogous procedures to those described by J. Han et al., Biochimica et Biophysica Acta, 1995, 1265, 224-227 and Y. Jiang et al., Journal of Biological Chemistry, 1996, 271, 17920-17926.
Both p38 protein isoforms were expressed in e coli in PET vectors. Human recombinant p38α and p38β isoforms were produced as 5′ c-myc, 6His tagged proteins. Both MKK6 and the p38 proteins were purified using standard protocols: the GST MKK6 was purified using a glutathione sepharose column and the p38 proteins were purified using nickel chelate columns.
The p38 enzymes were activated prior to use by incubation with MKK6 for 3 hours at 30° C. The unactivated coli-expressed MKK6 retained sufficient activity to fully activate both isoforms of p38. The activation incubate comprised p38α (10 μl of 10 mg/ml) or p38β (10 μl of 5 mg/ml) together with MKK6 (10 μl of 1 mg/ml), ‘Kinase buffer’ [100 μl; pH 7.4 buffer comprising Tris (50 mM), EGTA (0.1 mM), sodium orthovanadate (0.1 mM) and β-mercaptoethanol (0.1%)] and MgATP (30 μl of 50 mM Mg(OCOCH3)2 and 0.5 mM ATP). This produced enough activated p38 enzyme for 3 Microtiter plates.
Test compounds were solubilised in DMSO and 10 μl of a 1:10 diluted sample in ‘Kinase Buffer’ was added to a well in a Microtiter plate. For single dose testing, the compounds were tested at 10 μM. ‘Kinase Assay Mix’ [30 μl; comprising Myelin Basic Protein (Gibco BRL cat. no. 1322B-010; 1 ml of a 3.33 mg/ml solution in water), activated p38 enzyme (50 μl ) and ‘Kinase Buffer’ (2 ml)] was then added followed by ‘Labelled ATP’ [10 μl; comprising 50 μM ATP, 0.1 μCi ^33P ATP (Amersham International cat. no. BF1000) and 50 mM Mg(OCOCH3)2]. The plates were incubated at room temperature with gentle agitation. Plates containing p38α were incubated for 90 min and plates containing p38β P were incubated for 45 min. Incubation was stopped by the addition of 50 μl of 20% trichloroacetic acid (TCA). The precipitated protein was phosphorylated by p38 kinase and test compounds were assessed for their ability to inhibit this phosphorylation. The plates were filtered using a Canberra Packard Unifilter and washed with 2% TCA, dried overnight and counted on a Top Count scintillation counter.
Test compounds were tested initially at a single dose and active compounds were retested to allow IC50 values to be determined.

[1] = system: TNFα production by human peripheral blood mononuclear cells; test: PBMC test: inhibition of LPS-stimulated TNFα production; format: cell-based
Method: The ability of compounds of this invention to inhibit TNFα production was assessed by using human peripheral blood mononuclear cells which synthesise and secrete TNFα when stimulated with lipopolysaccharide.
Peripheral blood mononuclear cells (PBMC) were isolated from heparinised (10 units/ml heparin) human blood by density centrifugation (Lymphoprep™; Nycomed). Mononuclear cells were resuspended in culture medium [RPMI 1640 medium (Gibco) supplemented with 50 units/ml penicillin, 50 μg/ml streptomycin, 2 mM glutamine and 1% heat-inactivated human AB serum (Sigma H-1513)]. Compounds were solubilised in DMSO at a concentration of 50 mM, diluted 1:100 in culture medium and subsequently serial dilutions were made in culture medium containing 1% DMSO. PBMCs (2.4×10^5 cells in 160 μl culture medium) were incubated with 20 μl of varying concentrations of test compound (triplicate cultures) or 20 μl culture medium containing 1% DMSO (control wells) for 30 minutes at 37° C. in a humidified (5%CO2/95% air) incubator (Falcon 3072; 96 well flat-bottom tissue culture plates). 20 μl lipopolysaccharide [LPS E.Coli 0111:B4 (Sigma L-4130), final concentration 10 μg/ml] solubilised in culture medium was added to appropriate wells. 20 μl culture medium was added to “medium alone” control wells. Six “LPS alone” and four “medium alone” controls were included on each 96 well plate. Varying concentrations of a known TNFα inhibitor were included in each test, i.e. an inhibitor of the PDE Type IV enzyme (for example see Semmler, J. Wachtel. H and Endres, S., Int. J. Immunopharmac. (1993), 15(3), 409-413) or an inhibitor of pro TNFα convertase (for example, see McGeehan, G. M. et al. Nature (1994) 370, 558-561). Plates were incubated for 7 hours at 37° C. (humidified incubator) after which 100 μl of the supernatant was removed from each well and stored at −70° C. (96 well round-bottom plates; Corning 25850). TNFα levels were determined in each sample using a human TNFα ELISA (see WO92/10190 and Current Protocols in Molecular Biology, vol 2 by Frederick M. Ausbel et al., John Wiley and Sons Inc.).
% inhibition=(LPS alone−medium alone)−(test concentration−medium alone)/(LPS alone−medium alone)×100

[2] = system: TNFα production in human whole blood; test: Human Whole Blood test: inhibition of LPS-stimulated TNFα production; format: cell-based
Method: The ability of the compounds of this invention to inhibit TNFα production was also assessed in a human whole blood assay. Human whole blood secretes TNFα when stimulated with LPS. This property of blood forms the basis of an assay which is used as a secondary test for compounds which profile as active in the PBMC test.
Heparinised (10 units/ml) human blood was obtained from volunteers. 160 μl whole blood were added to 96 well round-bottom plates (Corning 25850). Compounds were solubilised and serially diluted in RPMI 1640 medium (Gibco) supplemented with 50 units/ml penicillin, 50 μg/ml streptomycin and 2 mM glutamine, as detailed above. 20 μl of each test concentration was added to appropriate wells (triplicate cultures). 20 μl of RPMI 1640 medium supplemented with antibiotics and glutamine was added to control wells. Plates were incubated for 30 minutes at 37° C. (humidified incubator), prior to addition of 20 μl LPS (final concentration 10 μg/ml). RPMI 1640 medium was added to control wells. Six “LPS alone” and four “medium alone” controls were included on each plate. A known TNFα synthesis/secretion inhibitor was included in each test. Plates were incubated for 6 hours at 37° C. (humidified incubator). […] TNFα levels were measured by ELISA (see WO92/10190 and Current Protocols in Molecular Biology, vol 2 by Frederick M. Ausbel et al., John Wiley and Sons Inc.). […]

T1 sequence (Q16539 whole entry): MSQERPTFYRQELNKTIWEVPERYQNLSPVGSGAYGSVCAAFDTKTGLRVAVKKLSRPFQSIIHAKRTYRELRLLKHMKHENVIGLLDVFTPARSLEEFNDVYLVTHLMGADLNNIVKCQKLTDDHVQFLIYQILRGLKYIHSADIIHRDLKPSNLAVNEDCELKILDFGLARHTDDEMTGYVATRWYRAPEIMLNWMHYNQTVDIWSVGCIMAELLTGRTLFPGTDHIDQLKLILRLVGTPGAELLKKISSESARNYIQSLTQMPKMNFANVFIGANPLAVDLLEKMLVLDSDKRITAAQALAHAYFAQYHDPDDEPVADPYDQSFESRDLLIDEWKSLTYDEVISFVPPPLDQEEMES

IC50 (p38α)	IC50 [1]	IC50 [2]	melting point	Compound
~800 nM	~1000 nM	–	–	Cc1ccc(NC(=O)c2ccno2)cc1NC(=O)c1cccc(CN2CCN(C)CC2)c1 [N-{4-methyl-3-[3-(4-methylpiperazin-1-ylmethyl)benzamido]phenyl}isoxazole-5-carboxamide]
~1000 nM	~4000 nM	–	–	Cc1ccc(NC(=O)c2ccco2)cc1NC(=O)c1cccc(CN2CCN(C)CC2)c1 [N-{4-methyl-3-[3-(4-methylpiperazin-1-ylmethyl)benzamido]phenyl}furan-2-carboxamide]
~200 nM	< 500 nM	~10000 nM	–	CCN(CC)Cc1ccc(C(=O)Nc2cc(NC(=O)c3ccnc(N4CCOCC4)c3)ccc2C)cc1 [N-[3-(4-diethylaminomethylbenzamido)-4-methylphenyl]-2-morpholinopyridine-4-carboxamide]
~100 nM	< 500 nM	~7000 nM	–	Cc1ccc(NC(=O)c2ccnc(N3CCOCC3)c2)cc1NC(=O)c1cccc(CN2CCN(C)CC2)c1 [N-{3-[3-(4-methylpiperazin-1-ylmethyl)benzamido]-4-methylphenyl}-2-morpholinopyridine-4-carboxamide]
~100 nM	< 500 nM	–	–	Cc1ccc(NC(=O)c2ccnc(N3CCCC3)c2)cc1NC(=O)c1cccc(CN2CCN(C)CC2)c1 [N-{3-[3-(4-methylpiperazin-1-ylmethyl)benzamido]-4-methylphenyl}-2-pyrrolidin-1-ylpyridine-4-carboxamide]
–	–	–	216 to 217 °C	Cc1ccc(NC(=O)c2ccc3ncccc3c2)cc1NC(=O)c1cccc(OCCN2CCOCC2)c1 [Example 13, N-{3-[3-(2-morpholinoethoxy)benzamido]-4-methylphenyl}quinoline-6-carboxamide]
